From patent publication US20240376097A1, “BCL-2 Inhibitor” (BeiGene Ltd., priority 2020, published 2024)
Like-named read-outs stand apart in the source and are kept apart here.

What was measured:
[1] = biological target: Recombinant human Bcl-2 protein (Homo sapiens (Human), UniProt P10415); assay: Bcl-2 TR-FRET Assay; assay type: binding
In short: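 Displacement of FITC-labelled Bak peptide (0.5 nM) from 0.05 nM human Bcl-2, detected by TR-FRET with Tb-cryptate anti-6His antibody after 1 h at room temperature. Compounds, 10-point series, preincubated 0.5 h with protein in 20 mM potassium phosphate pH 7.5, 50 mM NaCl. IC50s fitted by four-parameter logistic.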

[2] = biological target: recombinant human Bcl-2 D103Y protein (Homo sapiens (Human), UniProt P10415, D103Y); assay: Bcl-2-D103Y Biochemical Assay (TR-FRET); assay type: binding; settings: for IC50: TR-FRET, FITC labeled Bak peptide; for Ratio of Bcl-2 D103Y/Bcl-2 WT: ratio of IC50
In short: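 Compounds titrated against the Bcl-2 D103Y–ligand interaction; inhibition derived from the TR-FRET emission ratio 490 nm/520 nm after 337 nm excitation. Four-parameter logistic fitting gave IC50.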

[3] = test system: BCL-2 G101V knock-in cell line H96 (derive from RS4;11); assay: Bcl 2-G101V Knock-In RS4;11 Cell Proliferation Assay; assay type: cell-based; settings: Homo sapiens, RS4;11 Bcl-2 G101V knock-in clone H96, 48 hrs, CellTiter-GLO, read-out: Cellular proliferation assay (IC50, nM) RS4
In short: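 CellTiter-Glo luminescence after 48 h, 37 °C compound treatment (10 concentrations, maximum 1 μM or 10 μM) gave mean IC50 values. Cells were 50,000 per well of H96, a BCL2-G101V knock-in single clone derived from RS4;11 by Cas9 editing.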

[4] = test system: RS4;11 (BCL-2 dependent acute lymphoblastic leukemia cell line); assay: RS4;11 Cell Proliferation Assay; assay type: cell-based; settings: Homo sapiens, RS4-11, RS4;11 cells, read-out: Cellular proliferation assay (IC50, nM) RS4
In short: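 Viability measured via CellTiter-Glo luminescence after a 48 h, 37 °C exposure to compounds (10 points, highest 1 μM). Seeding was 50,000 RS4;11 cells per well in 10% FBS RPMI-1640; IC50 given as mean.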

[5] = test system: recombinant human Bcl-2-G101V protein; assay: Bcl-2-G101V TR-FRET Assay; assay type: binding; settings: ratio of biochemical IC50 Bcl-2 G101V / Bcl-2 WT
In short: (§1)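 IC50 values derive from four-parameter logistic fitting of percent inhibition data. That inhibition of ligand binding to Bcl-2-G101V is computed from the 490 nm/520 nm TR-FRET ratio under 337 nm excitation, over a rising compound concentration series.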

[6] = biological target: recombinant human Bcl-2-G101V protein (Homo sapiens (Human), UniProt P10415, G101V); assay: Bcl-2-G101V TR-FRET Assay; assay type: binding; settings: Bcl-2 G101V mutant, TR-FRET; read-out: Biochemical assay (IC50, nM) Bcl-2 G101V
In short: as §1

[7] = Bcl-2 wild type, TR-FRET, read-out: Biochemical assay (IC50, nM) Bcl-2 WT
[8] = wild type Bcl-2, unit inferred, read-out: Bcl-2 WT

COc1cc(CN2CCN(C3CC4(C3)CN(c3ccc(C(=O)NS(=O)(=O)c5ccc(NC[C@H]6CC[C@](C)(O)CC6)c([N+](=O)[O-])c5)c(Oc5cnc6[nH]cc(F)c6c5)c3)C4)[C@H](c3ccccc3C(C)C)C2)cnc1OC [Example 205, 4-(6-((R)-4-((5,6-dimethoxypyridin-3-yl)methyl)-2-(2-isopropylphenyl)piperazin-1-yl)-2-azaspiro[3.3]heptan-2-yl)-2-((3-fluoro-1H-pyrrolo[2,3-b]pyridin-5-yl)oxy)-N-((4-((((1r,4r)-4-hydroxy-4-methylcyclohexyl)methyl)amino)-3-nitrophenyl)sulfonyl) benzamide]
IC50 [1, 7]: 0.034 nM
IC50 [1, 8]: 0.034 nM
IC50 [2]: 0.047 nM
Ratio of Bcl-2 D103Y/Bcl-2 WT [2]: 1.4
IC50 [3]: 0.55 nM
IC50 [4]: 0.39 nM
Ratio of Bcl-2 G101V/WT [5]: 2
IC50 [6]: 0.07 nM

COc1ccc(CN2CCN(C3CC4(C3)CN(c3ccc(C(=O)NS(=O)(=O)c5ccc(NCC67CC8CC(C6)CC(OC)(C8)C7)c([N+](=O)[O-])c5)c(Oc5cnc6[nH]cc(F)c6c5)c3)C4)[C@H](c3ccccc3C(C)C)C2)cc1 [Example 357, 2-((3-fluoro-1H-pyrrolo[2,3-b]pyridin-5-yl)oxy)-4-(6-((R)-2-(2-isopropylphenyl)-4-(4-methoxybenzyl)piperazin-1-yl)-2-azaspiro[3.3]heptan-2-yl)-N-((4-((((1r,5R,7S)-3-methoxyadamantan-1-yl)methyl)amino)-3-nitrophenyl)sulfonyl) benzamide]
IC50 [1, 7]: 0.57 nM
IC50 [1, 8]: 0.57 nM
IC50 [2]: 1 nM
Ratio of Bcl-2 D103Y/Bcl-2 WT [2]: 1.8
IC50 [3]: 1 nM
IC50 [4]: 0.19 nM
Ratio of Bcl-2 G101V/WT [5]: 2.5
IC50 [6]: 1.4 nM

CC(C)c1ccccc1C1CN(Cc2ccc3sccc3c2)CCN1C1CC2(CCN(c3ccc(C(=O)NS(=O)(=O)c4ccc(NC[C@H]5CC[C@](C)(O)CC5)c([N+](=O)[O-])c4)c(Oc4cnc5[nH]ccc5c4)c3)CC2)C1 (some centres unmarked) [Example 58, 2-((1H-pyrrolo[2,3-b]pyridin-5-yl)oxy)-4-(2-(4-(benzo[b]thiophen-5-ylmethyl)-2-(2-isopropylphenyl)piperazin-1-yl)-7-azaspiro[3.5]nonan-7-yl)-N-((4-((((1r,4r)-4-hydroxy-4-methylcyclohexyl)methyl)amino)-3-nitrophenyl)sulfonyl)benzamide]
IC50 [1, 7]: 0.62 nM
IC50 [1, 8]: 0.62 nM
IC50 [2]: 1.8 nM
ratio of Bcl-2 D103Y/Bcl-2 wt, compared with F91b in WO2019210828 ([2]; comparison in words): significantly lower
Ratio of Bcl-2 D103Y/Bcl-2 WT [2]: 2.9
IC50 [3]: 7.6 nM
IC50 [4]: 0.74 nM
Ratio of Bcl-2 G101V/WT [5]: 3.2
IC50 [6]: 2 nM

CC(C)c1ccccc1C1CN(Cc2cnn(C3CC3)c2)CCN1C1CC2(CCN(c3ccc(C(=O)NS(=O)(=O)c4ccc(NC[C@H]5CC[C@](C)(O)CC5)c([N+](=O)[O-])c4)c(Oc4cnc5[nH]ccc5c4)c3)CC2)C1 (some centres unmarked) [Example 70, 2-((1H-pyrrolo[2,3-b]pyridin-5-yl)oxy)-4-(2-(4-((1-cyclopropyl-1H-pyrazol-4-yl)methyl)-2-(2-isopropylphenyl)piperazin-1-yl)-7-azaspiro[3.5]nonan-7-yl)-N-((4-((((1r,4r)-4-hydroxy-4-methylcyclohexyl)methyl)amino)-3-nitrophenyl)sulfonyl)benzamide]
IC50 [1, 7]: 0.014 nM
IC50 [1, 8]: 0.014 nM
IC50 [2]: 0.1 nM
Ratio of Bcl-2 D103Y/Bcl-2 WT [2]: 7.1
IC50 [3]: 1.5 nM
IC50 [4]: 0.38 nM
Ratio of Bcl-2 G101V/WT [5]: 9
IC50 [6]: 0.13 nM

COc1ccc(CN2CCN(C3CC4(CCN(c5ccc(C(=O)NS(=O)(=O)c6ccc(NC[C@H]7CC[C@](C)(O)CC7)c([N+](=O)[O-])c6)c(Oc6cnc7[nH]ccc7c6)c5)CC4)C3)C(c3ccccc3C3CC3)C2)cc1 (some centres unmarked) [Example 73, 2-((1H-pyrrolo[2,3-b]pyridin-5-yl)oxy)-4-(2-(2-(2-cyclopropylphenyl)-4-(4-methoxybenzyl)piperazin-1-yl)-7-azaspiro[3.5]nonan-7-yl)-N-((4-((((1r,4r)-4-hydroxy-4-methylcyclohexyl)methyl)amino)-3-nitrophenyl)sulfonyl)benzamide]
IC50 [1, 7]: 0.06 nM
IC50 [1, 8]: 0.06 nM
IC50 [2]: 0.31 nM
Ratio of Bcl-2 D103Y/Bcl-2 WT [2]: 5.1
IC50 [3]: 2.4 nM
IC50 [4]: 0.37 nM
Ratio of Bcl-2 G101V/WT [5]: 7.9
IC50 [6]: 0.47 nM

CC(C)c1ccccc1[C@@H]1CN(Cc2ccc(F)c(F)c2)CCN1C1CC2(C1)CN(c1ccc(C(=O)NS(=O)(=O)c3ccc(NC[C@H]4CC[C@](C)(O)CC4)c([N+](=O)[O-])c3)c(Oc3cnc4[nH]cc(F)c4c3)c1)C2 [Example 229, 4-(6-((R)-4-(3,4-difluorobenzyl)-2-(2-isopropylphenyl)piperazin-1-yl)-2-azaspiro[3.3]heptan-2-yl)-2-((3-fluoro-1H-pyrrolo[2,3-b]pyridin-5-yl)oxy)-N-((4-((((1r,4r)-4-hydroxy-4-methylcyclohexyl)methyl)amino)-3-nitrophenyl)sulfonyl) benzamide]
IC50 [1, 7]: 0.38 nM
IC50 [1, 8]: 0.38 nM
IC50 [2]: 0.45 nM
Ratio of Bcl-2 D103Y/Bcl-2 WT [2]: 1.2
IC50 [3]: 0.53 nM
IC50 [4]: 0.12 nM
Ratio of Bcl-2 G101V/WT [5]: 2.5
IC50 [6]: 0.96 nM

CC(C)c1ccccc1[C@@H]1CN(Cc2ccc(OC3CC3)cc2)CCN1C1CC2(C1)CN(c1ccc(C(=O)NS(=O)(=O)c3ccc(NC[C@H]4CC[C@](C)(O)CC4)c([N+](=O)[O-])c3)c(Oc3cnc4[nH]cc(F)c4c3)c1)C2 [Example 365]
IC50 [1, 7]: 0.46 nM
IC50 [2]: 0.51 nM
Ratio of Bcl-2 D103Y/Bcl-2 WT [2]: 1.1
IC50 [3]: 0.26 nM
IC50 [4]: 0.12 nM
Ratio of Bcl-2 G101V/WT [5]: 2.9
IC50 [6]: 1.3 nM

COc1cc(CN2CCN(C3CC4(C3)CN(c3ccc(C(=O)NS(=O)(=O)c5ccc(NC[C@H]6CC[C@](C)(O)CC6)c([N+](=O)[O-])c5)c(Oc5cnc6[nH]cc(F)c6c5)c3)C4)[C@H](c3ccccc3C(C)C)C2)ccc1N1CC(OC)C1 [Example 359, 2-((3-fluoro-1H-pyrrolo[2,3-b]pyridin-5-yl)oxy)-N-((4-((((1r,4r)-4-hydroxy-4-methylcyclohexyl)methyl)amino)-3-nitrophenyl)sulfonyl)-4-(6-((R)-2-(2-isopropylphenyl)-4-(3-methoxy-4-(3-methoxyazetidin-1-yl)benzyl)piperazin-1-yl)-2-azaspiro[3.3]heptan-2-yl)benzamide]
IC50 [1, 7]: 0.19 nM
IC50 [1, 8]: 0.19 nM
IC50 [2]: 0.44 nM
Ratio of Bcl-2 D103Y/Bcl-2 WT [2]: 2.4
IC50 [3]: 0.63 nM
IC50 [4]: 0.16 nM
Ratio of Bcl-2 G101V/WT [5]: 3.4
IC50 [6]: 0.64 nM

[2H]C([2H])([2H])Oc1cc(CN2CCN(C3CC4(C3)CN(c3ccc(C(=O)NS(=O)(=O)c5ccc(NC[C@H]6CC[C@](C)(O)CC6)c([N+](=O)[O-])c5)c(Oc5cnc6[nH]ccc6c5)c3)C4)[C@H](c3ccccc3C(C)C)C2)cc2c1OCC2(C)C [Example 324, 2-((1H-pyrrolo[2,3-b]pyridin-5-yl)oxy)-N-((4-((((1r,4r)-4-hydroxy-4-methylcyclohexyl)methyl)amino)-3-nitrophenyl)sulfonyl)-4-(6-((R)-2-(2-isopropylphenyl)-4-((7-(methoxy-d3)-3,3-dimethyl-2,3-dihydrobenzofuran-5-yl)methyl)piperazin-1-yl)-2-azaspiro[3.3]heptan-2-yl)benzamide]
IC50 [1, 7]: 0.16 nM
IC50 [1, 8]: 0.16 nM
IC50 [2]: 0.14 nM
Ratio of Bcl-2 D103Y/Bcl-2 WT [2]: 0.87
IC50 [3]: 0.51 nM
IC50 [4]: 0.22 nM
Ratio of Bcl-2 G101V/WT [5]: 1.9
IC50 [6]: 0.31 nM

CC(C)c1ccccc1C1CN(Cc2cccc3c2OCCCO3)CCN1C1CC2(CCN(c3ccc(C(=O)NS(=O)(=O)c4ccc(NC[C@H]5CC[C@](C)(O)CC5)c([N+](=O)[O-])c4)c(Oc4cnc5[nH]ccc5c4)c3)CC2)C1 (some centres unmarked) [Example 107, 2-((1H-pyrrolo[2,3-b]pyridin-5-yl)oxy)-4-(2-(4-((3,4-dihydro-2H-benzo[b][1,4]dioxepin-6-yl)methyl)-2-(2-isopropylphenyl)piperazin-1-yl)-7-azaspiro[3.5]nonan-7-yl)-N-((4-((((1r,4r)-4-hydroxy-4-methylcyclohexyl)methyl)amino)-3-nitrophenyl)sulfonyl)benzamide]
IC50 [1, 7]: 0.11 nM
IC50 [1, 8]: 0.11 nM
IC50 [2]: 0.31 nM
Ratio of Bcl-2 D103Y/Bcl-2 WT [2]: 2.8
IC50 [3]: 1.77 nM
IC50 [4]: 0.33 nM
Ratio of Bcl-2 G101V/WT [5]: 5.1
IC50 [6]: 0.56 nM
